Measured values reported in patent US12077503B2, “Substituted cyclic amides and their use as herbicides” (FMC CORPORATION, priority 2015, dated 2024).

Tests used:
Type in all cases: in vivo
[1] = system: pigweed (Amaranthus retroflexus); experiment: Test A postemergence; conditions: Amaranthus retroflexus, post-emergence, 240 h, Postemergence, read-out: Pigweed plant response rating (0 to 100 scale)
Outline: (§1)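 Seeds sprayed preemergence with a directed soil spray, or plants at 2 to 10 cm height and one- to two-leaf stage sprayed postemergence, with test chemicals in a non-phytotoxic solvent mixture containing surfactant, in loam soil–sand blend. Injury rated visually against untreated controls after about 10 d in greenhouse, 0 (no effect) to 100 (complete control).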

[2] = system: barnyardgrass (Echinochloa crus-galli); experiment: Test A postemergence; conditions: Echinochloa crus-galli, post-emergence, 240 h, Postemergence
Outline: as §1

[3] = system: giant foxtail (Setaria faberii); experiment: Test A postemergence; conditions: Setaria faberi, post-emergence, 240 h, Postemergence, read-out: Foxtail, Giant plant response rating (0 to 100 scale)
Outline: as §1

[4] = system: corn (Zea mays); experiment: Test A postemergence; conditions: Zea mays, post-emergence, 240 h, Postemergence, read-out: Corn plant response rating (0 to 100 scale)
Outline: as §1

[5] = system: wheat (Triticum aestivum); experiment: Test A postemergence; conditions: Triticum aestivum, post-emergence, 240 h, Postemergence, read-out: Wheat plant response rating (0 to 100 scale)
Outline: as §1

[6] = system: Kochia (Kochia scoparia); experiment: Test A postemergence; conditions: Bassia scoparia, post-emergence, 240 h, Postemergence, read-out: Kochia plant response rating (0 to 100 scale)
Outline: as §1

[7] = system: blackgrass (Alopecurus myosuroides); experiment: Test A postemergence; conditions: Alopecurus myosuroides, post-emergence, 240 h, Postemergence, read-out: Blackgrass plant response rating (0 to 100 scale)
Outline: as §1

[8] = system: ragweed (common ragweed, Ambrosia elatior); experiment: Test A postemergence; conditions: Ambrosia artemisiifolia, post-emergence, 240 h, Postemergence, read-out: Ragweed plant response rating (0 to 100 scale)
Outline: as §1

[9] = system: ryegrass, Italian (Italian ryegrass, Lolium multiflorum); experiment: Test A postemergence; conditions: Lolium multiflorum, post-emergence, 240 h, Postemergence, read-out: Ryegrass, Italian plant response rating (0 to 100 scale)
Outline: as §1

[10] = system: barnyardgrass (Echinochloa crus-galli); experiment: Test B flooded paddy test; conditions: Echinochloa crus-galli, 360 h, Flood, 250 g ai/ha; visually evaluated after 13 to 15 d; read-out: Plant response rating, Barnyardgrass (0 to 100 scale where 0 is no effect and 100 is complete control)
Outline: (§2)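 Flooding to 3 cm over soil accompanied treatment, which consisted of adding compound to the standing water around 2-leaf plants; depth was then maintained. Visual assessment versus controls followed at 13 to 15 d (scale 0–100, 0 meaning no effect).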

[11] = system: rice (Oryra sativa); experiment: Test B flooded paddy test; conditions: Oryza sativa, 360 h, Flood, 250 g ai/ha; visually evaluated after 13 to 15 d; read-out: Plant response rating, Rice (0 to 100 scale where 0 is no effect and 100 is complete control)
Outline: as §2

[12] = system: ducksalad (Heteranthera limosa); experiment: Test B flooded paddy test; conditions: Heteranthera limosa, 360 h, Flood, 250 g ai/ha; visually evaluated after 13 to 15 d; read-out: Plant response rating, Ducksalad (0 to 100 scale where 0 is no effect and 100 is complete control)
Outline: as §2

[13] = system: sedge, umbrella (small-flower umbrella sedge, Cyperus difformis); experiment: Test B flooded paddy test; conditions: Cyperus difformis, 360 h, Flood, 250 g ai/ha; visually evaluated after 13 to 15 d; read-out: Plant response rating, Sedge, Umbrella (0 to 100 scale where 0 is no effect and 100 is complete control)
Outline: as §2

[14] = system: pigweed (Amaranthus retroflexus); experiment: Test A preemergence; conditions: Amaranthus retroflexus, pre-emergence, 240 h, Preemergence
[15] = system: barnyardgrass (Echinochloa crus-galli); experiment: Test A preemergence; conditions: Echinochloa crus-galli, pre-emergence, 240 h, Preemergence
Outline: as §1

[16] = system: giant foxtail (Setaria faberii); experiment: Test A preemergence; conditions: Setaria faberi, pre-emergence, 240 h, Preemergence
Outline: as §1

[17] = system: Kochia (Kochia scoparia); experiment: Test A preemergence; conditions: Bassia scoparia, pre-emergence, 240 h, Preemergence
Outline: as §1

[18] = system: ragweed (common ragweed, Ambrosia elatior); experiment: Test A preemergence; conditions: Ambrosia artemisiifolia, pre-emergence, 240 h, Preemergence
Outline: as §1

[19] = system: ryegrass, Italian (Italian ryegrass, Lolium multiflorum); experiment: Test A preemergence; conditions: Lolium multiflorum, pre-emergence, 240 h, Preemergence
Outline: as §1

[20] = 125 g ai/ha, visual rating about 10 d after treatment
[21] = 31 g ai/ha, 0 is no effect, 100 is complete control

COc1ccc([C@H]2CN(C)C(=O)[C@@H]2C(=O)Nc2cccc(F)c2F)cc1 [Compound 1343]
100%: pest or weed control at 31 g/ha ([16]; 31 g ai/ha, 0 to 100 scale where 0 is no effect and 100 is complete control, read-out: Foxtail, Giant plant response rating) | pest or weed control at 125 g/ha ([16]; 125 g ai/ha, 0 to 100 scale (0 no effect, 100 complete control), read-out: Plant response rating, Foxtail, Giant)
40%: pest or weed control at 125 g/ha ([17]; 125 g ai/ha, 0 to 100 scale (0 no effect, 100 complete control), read-out: Plant response rating, Kochia)
98%: pest or weed control at 250 g/ha [12]
50%: pest or weed control at 125 g/ha [6, 20]
90%: pest or weed control at 125 g/ha ([2]; 125 g ai/ha, visual rating about 10 d after treatment, read-out: Barnyardgrass plant response rating (0 to 100 scale, 0 no effect, 100 complete control)) | pest or weed control at 125 g/ha [3, 20] | pest or weed control at 31 g/ha ([15]; 31 g ai/ha, 0 to 100 scale where 0 is no effect and 100 is complete control, read-out: Barnyardgrass plant response rating) | pest or weed control at 125 g/ha ([15]; 125 g ai/ha, 0 to 100 scale (0 no effect, 100 complete control), read-out: Plant response rating, Barnyardgrass) | pest or weed control at 31 g/ha ([18]; 31 g ai/ha, 0 to 100 scale where 0 is no effect and 100 is complete control, read-out: Ragweed plant response rating)
0%: pest or weed control at 125 g/ha [1, 20] | pest or weed control at 31 g/ha [1, 21] | plant injury at 125 g/ha [4, 20] | plant injury at 31 g/ha [4, 21] | plant injury at 31 g/ha [5, 21] | pest or weed control at 31 g/ha [6, 21] | pest or weed control at 125 g/ha [7, 20] | pest or weed control at 31 g/ha [7, 21] | pest or weed control at 31 g/ha [8, 21] | pest or weed control at 31 g/ha [9, 21] | pest or weed control at 250 g/ha [11] | pest or weed control at 250 g/ha [13] | pest or weed control at 31 g/ha ([14]; 31 g ai/ha, 0 to 100 scale where 0 is no effect and 100 is complete control, read-out: Pigweed plant response rating) | pest or weed control at 31 g/ha ([17]; 31 g ai/ha, 0 to 100 scale where 0 is no effect and 100 is complete control, read-out: Kochia plant response rating) | pest or weed control at 125 g/ha ([18]; 125 g ai/ha, 0 to 100 scale (0 no effect, 100 complete control), read-out: Plant response rating, Ragweed) | pest or weed control at 31 g/ha ([19]; 31 g ai/ha, 0 to 100 scale where 0 is no effect and 100 is complete control, read-out: Ryegrass, Italian plant response rating)
30%: plant injury at 125 g/ha [5, 20] | pest or weed control at 125 g/ha [8, 20] | pest or weed control at 125 g/ha ([14]; 125 g ai/ha, 0 to 100 scale (0 no effect, 100 complete control), read-out: Plant response rating, Pigweed) | pest or weed control at 125 g/ha ([19]; 125 g ai/ha, 0 to 100 scale (0 no effect, 100 complete control), read-out: Plant response rating, Ryegrass, Italian)
95%: pest or weed control at 250 g/ha [10]
20%: pest or weed control at 125 g/ha [9, 20]
60%: pest or weed control at 31 g/ha ([2]; 31 g ai/ha, 0 is no effect, 100 is complete control, read-out: Barnyardgrass plant response rating (0 to 100 scale)) | pest or weed control at 31 g/ha [3, 21]
